The results in this text go back to the METLIN SMRT retention time set (Domingo-Almenara et al. 2019).

Molecules are shown by their SMILES.

The nature of the series: gradient 5% acetonitrile 3 min, to 50% in 2 min, to 85% in 15 min, held 3 min, 100 µL/min. The conditions noted are these: column: Zorbax Extend-C18 2.1 x 50 mm; eluents: water / acetonitrile, 0.1% formic acid. The gist of the method: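 Using water and acetonitrile that each contained 0.1% formic acid, mixtures of ~100 pure standards were separated at 100 μL/min on a Zorbax Extend-C18 column (2.1 × 50 mm, 1.8 μm). The HPLC fed a quadrupole time-of-flight mass spectrometer working in positive and negative ionization mode, with dead and dwell volumes of 40 μL and 900 μL. Data were acquired over 3 months. Retention time was read from computationally picked adduct peaks after manual inspection of each.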
Molecule `Cc1sc(NC(=O)c2ccccc2C(=O)O)nc1-c1ccccc1` showed an RP-LC retention time of 855 s.
The value for `CCNC(=O)N1CCCC(c2nn(C)c(=O)n2C2CCCC2)C1` (stereo not given) was 630 s; that for `Cc1ccc2c(Nc3cc(F)cc(F)c3)c(C(=O)N3CCOCC3)cnc2n1` was 593 s; that for `O=C(CCc1c(-c2ccc(F)cc2)nc2ccccn12)N1CCC2(CC1)OCCO2` was 615 s.
In turn, `CSc1ccccc1NC(=O)Cc1csc(NC(=O)c2ncccn2)n1` had an RP-LC retention time of 657 s.
As for `CCn1c(C(=O)NCCc2c[nH]c3ccccc23)cc2cc(S(=O)(=O)N(C)C)ccc21`, the figure is 969 s; as for `Cc1nc2scc(C)n2c(=O)c1S(=O)(=O)N1CCN(c2ccccn2)CC1`, 584 s; as for `COCCCNC(=O)c1nc(Nc2ccc(F)cc2)c2ccccc2n1`, 696 s.
The molecule `Clc1ccc(-c2nnc(-c3cccnc3N3CCN(c4ccccn4)CC3)o2)cc1` registered an RP-LC retention time of 710 s.
In turn, `CCN1C(=O)c2cc(C(=O)Nc3cccc(Cl)c3)nn2CC1(C)C(=O)NC1CCCC1` (stereo not given) gave an RP-LC retention time of 887 s.
The value for `COc1ccccc1Oc1ccc(S(=O)(=O)NCC(=O)O)cc1` was 708 s; that for `COc1ccc(NC(=O)Cn2cccc2-c2nnc(C3CCC3)o2)cc1` was 850 s; that for `Cc1cc(NS(=O)(=O)c2cc3n(c2)CCCN(C)C3=O)ccc1F` was 696 s.
As for `CCCNC(=O)c1cc(C)nc2c(Cl)cccc12`, the figure is 753 s.
The value for `CCOC(=O)C1CCN(c2cc3c(cc2NC(=O)C(C)C)n(C)c(=O)c(=O)n3C)CC1` was 733 s; that for `CC1CCc2nc(NC(=O)CCS(=O)(=O)Cc3ccccc3)sc2C1` (stereo not given) was 853 s.
The molecule `CC(C(=O)N1CCC(N2CCCCC2)CC1)C1CCN(S(=O)(=O)c2ccc(Cl)s2)CC1` (stereo not given) displayed an RP-LC retention time of 681 s.
In turn, `Cc1cc(F)ccc1NC(=O)C1CCN(S(=O)(=O)c2ccc3[nH]c(=O)ccc3c2)CC1` yielded an RP-LC retention time of 729 s.
`COc1ccc(C(=O)N2CC3CN(S(=O)(=O)c4ccc(OC)cc4)CC(C2)O3)cc1` showed an RP-LC retention time of 769 s.
The value for `COC(=O)c1cnn(-c2ccc(C(=O)NC3CCCC3)cc2)c1N` was 716 s; that for `O=C1CCCc2c1cc(C(=O)NCCc1ccco1)c(=O)n2-c1ccc(F)cc1` was 834 s; that for `CCC(C)CC(=O)N1CCCN(C2=NS(=O)(=O)C(c3ccc(C(C)C)cc3)=C2C)CC1` (stereo not given) was 1000 s.
Molecule `COC(=O)c1ccsc1NC(=O)c1ccccc1Cl` had an RP-LC retention time of 897 s.
`Cc1cc(=O)n(CC(=O)Nc2ccc(C)c(C)c2)c(N2CCOCC2)n1` yielded an RP-LC retention time of 697 s.
As for `Cc1cc(C)cc(NC(=O)N2CCC3(CC2)NC(=O)c2ccccc2N3C)c1`, the figure is 808 s; as for `COc1ccc(CCC(=O)c2c(O)cc(O[C@@H]3O[C@H](CO)[C@@H](O)[C@H](O)[C@H]3O[C@@H]3O[C@@H](C)[C@H](O)[C@@H](O)[C@H]3O)cc2O)cc1O`, 654 s; as for `O=C(C1CCCO1)N1CCCN(Cc2nc(-c3ccc(Cl)cc3)no2)CC1` (stereo not given), 706 s.
With `Cc1ccc2c(c1)C1CC(C)(O2)N(c2ccc(C(=O)O)cc2)C(=O)N1` (stereo not given), the RP-LC retention time stood at 709 s.
With `O=C(NCc1nc2ccccc2n1CC(=O)N1CCCCCC1)c1ccco1`, the RP-LC retention time worked out at 627 s.
The value for `CC(C)(C)c1cc(C(=O)Nc2ccc(C#N)cc2)nc2ccnn12` was 1200 s; that for `O=C(C1CCN(c2cnc3nccnc3c2)CC1)N1CCCCC1` was 648 s.
For the molecule `COc1ccc(Br)cc1CNC(=O)Cn1cnc2nc3c(cc2c1=O)CC(C)CC3` (stereo not given), the RP-LC retention time came out at 845 s.
As for `O=C(N[C@H]1C[C@@H]2C[C@H]1CN2C(=O)Nc1ccc(C(F)(F)F)cc1)c1cccs1`, the figure is 840 s.
The value for `CC1=NS(=O)(=O)N(C)C=C1C(=O)OCc1ccc(C#N)cc1` was 842 s.
Turning to `COc1ccc(NC(=O)N2CCC3(CC2)N=C(c2ccccc2)C(=O)N3)c(OC)c1`, the RP-LC retention time is 764 s.
On to `O=C(Nc1ccccc1)N1CCc2nc[nH]c2C1`, for which the RP-LC retention time stood at 560 s.
The molecule `CCCN(C(=O)Cc1ccc(OC)c(OC)c1)c1nc(-c2ccc(C)cc2)cs1` yielded an RP-LC retention time of 1310 s.
As for `Cn1nnc2ccc(-c3noc(COc4ccc(F)cc4)n3)cc21`, the figure is 924 s; as for `CNC(=O)N1CCC(CCc2nc(C3CCOCC3)no2)CC1`, 648 s; as for `O=C1NCCCn2cc(S(=O)(=O)Nc3ccc(C(F)(F)F)cc3)cc21`, 728 s.
On to `CC(=O)Nc1cccc2c(C(=O)NC3CCCC3)ccnc12`, for which the RP-LC retention time was determined as 719 s.
Regarding `O=C(Nc1ccc(Cl)cc1)Nc1c(-c2ccncc2)nc2ccccn12`, the RP-LC retention time was found to be 631 s.
The value for `CC(C)c1ccc(NC(=O)N2CCN(c3ccc4nncn4n3)CC2)cc1` was 672 s; that for `CC(=O)c1ccc(NC(=O)C(C)Oc2ccc(=O)n(-c3ccc(F)cc3)n2)cc1` (stereo not given) was 727 s.
`CCCN(CC1CCOC1)C(=O)Nc1cc(F)ccc1F` (stereo not given) showed an RP-LC retention time of 844 s.
`Cc1ccc2nc(N3CCN(C)CC3)c(-c3noc(C)n3)cc2c1`: the RP-LC retention time worked out at 645 s.
The value for `Cc1ccc(CNC(=O)NCC2Cn3cccc3C(=O)N2C)cc1` (stereo not given) was 680 s.
Molecule `COc1ccccc1-c1nc(Cn2nnc(-c3nc(-c4ccc(C)cc4)no3)c2C)c(C)o1` had an RP-LC retention time of 1170 s.
`COc1ccc(-c2c(C)noc2NC(C)=O)cc1S(=O)(=O)Nc1ccccc1F` registered an RP-LC retention time of 783 s.
As for `Cc1ccc(-c2cn3c(CC(=O)N4CCN(c5ccc(Cl)cc5)CC4)csc3n2)cc1C`, the figure is 997 s.
The value for `CCCSCCCNC(=O)c1cc2n(n1)CCCN(Cc1ccccc1)C2=O` was 878 s; that for `CCC(C)(C)C(=O)N1CCCC(c2nc(CCNC(=O)C3CC3)cs2)C1` (stereo not given) was 767 s; that for `O=C(Nc1ccc(-c2nc(-c3ccc(Cl)cc3)no2)cc1)c1ccco1` was 1170 s.
The value for `CCSc1nnc(-c2nn(C)c3c2CN(C(=O)c2cc(C)cc(C)c2)CC3)n1C` was 811 s; that for `O=C(Nc1nnc(-c2ccc3c(c2)CCCC3)o1)c1ccc([N+](=O)[O-])o1` was 918 s; that for `O=C(Cc1ccsc1)N1CCN(c2ncnc3c2CCC3)CC1` was 594 s.
Consider `COc1ccc2[nH]cc(CCN3CC(C(=O)NC4CCCC4)CC3=O)c2c1` (stereo not given), for which the RP-LC retention time was 709 s.
Consider `Cc1cc(C2CCCN2C(=O)Nc2ccc(F)c(Cl)c2)no1` (stereo not given), for which the RP-LC retention time worked out at 808 s.
The value for `O=C1CCCN1CCCN(CC(=O)N1CCNCC1)C(=O)c1cccc(Cl)c1` was 586 s; that for `CN1C(=O)c2cccn2CC1C(=O)Nc1ccc(F)cc1F` (stereo not given) was 696 s; that for `COc1ccc(-n2ccc(=O)c(-c3nc(-c4ccc(F)cc4)no3)n2)cc1` was 851 s.
On to `O=C([C@@H]1C[C@H](F)CN1C(=O)Nc1ccc(F)cc1)N1CCOCC1`, for which the RP-LC retention time is 608 s.
As to `Cc1cc(C)c2c(n1)SCC(=O)N2CCCC(=O)NCCCN1CC(C)CC(C)C1` (stereo not given), the RP-LC retention time is 595 s.
As for `COc1cc(CN2CCCC2c2cc(C(C)C)no2)ccc1OCC(N)=O` (stereo not given), the figure is 584 s; as for `CC1CCCN(CC2CCN(S(=O)(=O)c3cccc(Cl)c3)CC2)C1` (stereo not given), 696 s; as for `CCCCn1c(=O)c2ccccc2n(Cc2nc(-c3ccccc3)no2)c1=O`, 1140 s.
As for `Cc1ccsc1C(=O)N1CCC2(CC1)NC(=O)N(Cc1ccccc1Cl)C2=O`, the figure is 847 s; as for `CN1c2cc(F)ccc2C(=O)NC12CCN(C(=O)Cc1ccccc1)CC2`, 779 s; as for `O=C(c1n[nH]c2c1CCCC2)N1CCC2(CC1)N=C(c1ccccc1)NO2`, 698 s.
The value for `CC1=C(c2cccc(Cl)c2)S(=O)(=O)N=C1N1CCCN(C(=O)NC(C)(C)C)CC1` was 883 s; that for `Cc1cn2c(CCC(=O)NCCn3nc(-c4ccco4)ccc3=O)csc2n1` was 539 s; that for `COc1ccc(NC(=O)Cn2cnc3nc(N4CCCC(C(=O)NC5CC5)C4)sc3c2=O)cc1` (stereo not given) was 681 s.
With `Cc1cc(N2CCN(C)CC2)nc(N2CCN(S(=O)(=O)c3ccc(-c4ccccc4)cc3)CC2)n1`, the RP-LC retention time came out at 615 s.
As for `CN1C(=O)Cc2ccccc2C1C(=O)NCc1ccccc1F` (stereo not given), the figure is 713 s; as for `CCC(=O)Nc1ccc(C2(C(=O)NCC3CC3)CCCCC2)cc1`, 825 s; as for `CCCCOc1ccc(C(=O)Nc2ccc(F)cc2F)cc1`, 1130 s.
`O=C(NCc1cc(F)ccc1F)c1ccc2c(c1)nc1n2CCN(C2CCCCC2)C1=O` came in with an RP-LC retention time of 830 s.
`Cc1noc(C2CN(C(=O)c3n[nH]c4ccccc34)CC23CCN(C)CC3)n1` (stereo not given): the RP-LC retention time was 1010 s.
As for `COc1ccc(CNS(=O)(=O)c2cc(-c3cc(C(F)(F)F)on3)sc2C)cc1`, the figure is 848 s; as for `Cc1cn(C)c(CC(=O)Nc2ccc(Cl)cc2)c1C(=O)O`, 804 s.
